Structures are written as SMILES.

Here are results for four molecules from ChEMBL document CHEMBL1130374, “Resolution and biological activities of optical isomers of 1,4-diethyl-3,6-epidithiopiperazine-2,5-dione” (1997).

For assay [1], the species on record is Mus musculus. The assay can be described thus: The extent of apoptosis was determined by evaluating the subdiploid population of propidium iodide stained cells using flow cytometry after 9 hr using thymocytes from mice. It counts as functional, Thymocyte. (Flow cytometry measures light scatter and fluorescence of single cells or particles in a stream.)
Assay [2] has as its target Creatine kinase M-type (Oryctolagus cuniculus) (UniProt P00563). The experiment in a line: Compound was evaluated for interaction with the creatine kinase in rabbit muscle after 6 hr. Further details: reference not given here.
Another assay deals with P815. The experiment in a line: Compound was evaluated for Thymidine incorporation in P815 cell lines. It counts as functional. As to conditions: Mus musculus, read-out: ED50 (the source's name). Background: Uptake of a labelled nucleoside into DNA is a usual measure of proliferation.
Assay [3] is filed under the species Mus musculus. The experiment in a line: Compound was evaluated for macrophage adherence in thioglycolate induced mouse macrophages. It counts as functional. As to conditions: read-out: ED50 (the source's name).

Creatine kinase M-type (Oryctolagus cuniculus), sequence (P00563 whole entry, looked up): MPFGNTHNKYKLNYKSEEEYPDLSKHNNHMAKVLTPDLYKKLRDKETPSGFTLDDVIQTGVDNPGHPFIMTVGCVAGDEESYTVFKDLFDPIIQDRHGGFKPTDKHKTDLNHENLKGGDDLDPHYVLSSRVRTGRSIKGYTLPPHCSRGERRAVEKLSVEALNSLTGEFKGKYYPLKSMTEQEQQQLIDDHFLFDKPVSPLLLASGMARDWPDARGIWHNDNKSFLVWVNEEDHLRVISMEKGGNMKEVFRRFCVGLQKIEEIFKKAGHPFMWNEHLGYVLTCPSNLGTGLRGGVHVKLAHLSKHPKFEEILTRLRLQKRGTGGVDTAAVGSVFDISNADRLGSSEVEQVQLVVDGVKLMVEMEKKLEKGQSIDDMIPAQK

For the molecule `CCN1C(=O)[C@H]2SS[C@@H]1C(=O)N2CC`, the Activity came out at 53% in the assay listed under Mus musculus [1] and 34% in assay [2]. For the same molecule, the EC50 in the assay with P815 stood at 50 µM; in the assay filed under Mus musculus [3] it was 5 µM.
Regarding `CCN1C(=O)[C@@H]2SS[C@H]1C(=O)N2CC`, the Activity in the assay listed under Mus musculus [1] was found to be 57%; in assay [2], 34%. Moreover, the EC50 in the assay with P815 worked out at 55 µM; in the assay listed under Mus musculus [3], 8 µM.
Taken in the same sequence, the figures for `CCN1C(=O)C2SSC1C(=O)N2CC` (racemic) were 54%, 35%, 35 µM and 2.5 µM.
Taken in the same sequence, the figures for `CN1C(=O)[C@]23CC4=CC=C[C@H](O)[C@H]4N2C(=O)[C@@]1(CO)SS3` [GLIOTOXIN] were 59%, 32%, 2 µM and 0.35 µM.
